Measurements reported in US20250206732A1, “COMPOUNDS AND METHODS FOR THE TARGETED DEGRADATION OF KRAS” (Arvinas Operations, Inc., priority 2022, published 2025).

Molecular target: T1, AsPC-1 HiBiT-KRASG12D (Homo sapiens, UniProt P01116, G12D)
T1 construct: insert the HiBiT tag onto the N-terminus of one or more of the endogenous KRAS alleles; endogenous in cells; host or cells: AsPC-1 (ATCC CRL-1682), CRISPR-Cas9 knock-in clone, one tagged allele
Assay: HiBiT degradation assay (G12D), AsPC-1 HiBiT-KRASG12D cells
Assay type: cell-based
Details: 24 hours treatment; for Dmax: ASPC1, AsPC-1 HiBiT-KRASG12D cells, maximum degradation observed; for DC50: AsPC-1 HiBiT-KRASG12D cells, HiBiT luminescence
How it was run: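 Steps: treat HiBiT-KRASG12D AsPC-1 cells with compound for 24 hours; add alamar blue to 1× and incubate 4 hours to assess viability; wash with PBS; add HiBiT lytic detection reagent, incubate 45 minutes at room temperature; read luminescence. Viability fluorescence is normalized to DMSO wells.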

T1 sequence (P01116 1-188 isoform P01116-2 G12D): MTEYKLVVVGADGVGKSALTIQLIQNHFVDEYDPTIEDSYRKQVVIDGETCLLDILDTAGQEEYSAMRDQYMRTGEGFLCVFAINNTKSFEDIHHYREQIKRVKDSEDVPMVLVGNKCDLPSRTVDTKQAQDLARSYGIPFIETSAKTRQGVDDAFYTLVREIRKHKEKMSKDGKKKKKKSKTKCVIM

SMILES | Dmax | DC50
CCc1cccc2cc(O)cc(-c3ccc4c(N5CC6CCC(C5)N6)nc(OC[C@]56CCCN5[C@H](COC(=O)N5CCN(c7cc(C(C(=O)N8C[C@H](O)C[C@H]8C(=O)N[C@@H](C)c8ccc(-c9scnc9C)cc8)C(C)C)on7)CC5)CC6)nc4c3F)c12 (single isomer, unassigned) [Compound 267] | 80 to 100% | < 600 nM
Cc1ncsc1-c1ccc([C@H](C)NC(=O)[C@@H]2C[C@@H](O)CN2C(=O)[C@H](c2cc(OC[C@@H]3CC[C@]4(COc5nc(N6CC7CCC(C6)N7)c6cnc(-c7cccc8ccc(F)c(F)c78)c(F)c6n5)CCCN34)no2)C(C)C)cc1 [Compound 62, (2S,4R)-1-[(2S)-2-(3-{[(3S,7aS)-7a-{[(4-{3,8-diazabicyclo[3.2.1]octan-3-yl}-7-(7,8-difluoronaphthalen-1-yl)-8-fluoropyrido[4,3-d]pyrimidin-2-yl)oxy]methyl}-hexahydro-1H-pyrrolizin-3-yl]methoxy}-1,2-oxazol-5-yl)-3-methylbutanoyl]-4-hydroxy-N-[(1S)-1-[4-(4-methyl-1,3-thiazol-5-yl)phenyl]ethyl]pyrrolidine-2-carboxamide] | – | > 3000 nM
CCc1cccc2cc(O)cc(-c3ncc4c(N5CC6CCC(C5)N6)nc(OC[C@@H]5CC[C@@H](COC(=O)N6CCN(c7cc([C@@H](C(=O)N8C[C@H](O)C[C@H]8C(=O)N[C@@H](C)c8ccc(-c9scnc9C)cc8)C(C)C)on7)C[C@@H]6C)N5C)nc4c3F)c12 [Compound 280, [(2S,5S)-5-[[4-(3,8-diazabicyclo[3.2.1]octan-3-yl)-7-(8-ethyl-3-hydroxy-1-naphthyl)-8-fluoro-pyrido[4,3-d]pyrimidin-2-yl]oxymethyl]-1-methyl-pyrrolidin-2-yl]methyl (2S)-4-[5-[(1S)-1-[(2S,4R)-4-hydroxy-2-[[(1S)-1-[4-(4-methylthiazol-5-yl)phenyl]ethyl]carbamoyl]pyrrolidine-1-carbonyl]-2-methyl-propyl]isoxazol-3-yl]-2-methyl-piperazine-1-carboxylate] | 20 to 60% | 600 to 1000 nM
CCc1cccc2cc(O)cc(-c3ncc4c(N5CC6CCC(C5)N6)nc(OCCN5CCC(C6CN(c7cc([C@H](C(=O)N8C[C@H](O)C[C@H]8C(=O)N[C@@H](C)c8ccc(-c9scnc9C)cc8)C(C)C)on7)C6)CC5)nc4c3F)c12 (single isomer, unassigned) [Compound 275] | 80 to 100% | < 600 nM
CCc1cccc2cc(O)cc(-c3ncc4c(N5CC6CCC(C5)N6)nc(OCCN5CCC(C(C)(C)N6CCN(c7cc([C@H](C(=O)N8C[C@H](O)C[C@H]8C(=O)N[C@@H](C)c8ccc(-c9scnc9C)cc8)C(C)C)on7)CC6)CC5)nc4c3F)c12 (single isomer, unassigned) [Compound 251, (2S,4R)-1-[(2R*)-2-(3-{4-[2-(1-{2-[(4-{3,8-diazabicyclo[3.2.1]octan-3-yl}-7-(8-ethyl-3-hydroxynaphthalen-1-yl)-8-fluoropyrido[4,3-d]pyrimidin-2-yl)oxy]ethyl}piperidin-4-yl)propan-2-yl]piperazin-1-yl}-1,2-oxazol-5-yl)-3-methylbutanoyl]-4-hydroxy-N-[(1S)-1-[4-(4-methyl-1,3-thiazol-5-yl)phenyl]ethyl] pyrrolidine-2-carboxamide] | 80 to 100% | < 600 nM
CCc1cccc2cc(O)cc(-c3ncc4c(N5CC6CCC(C5)N6)nc(OCCN5CC[C@H]6[C@H](CCN6c6cc([C@@H](C(=O)N7C[C@H](O)C[C@H]7C(=O)N[C@@H](C)c7ccc(-c8scnc8C)cc7)C(C)C)on6)C5)nc4c3F)c12 (relative stereo) [Compound 75, (2S,4R)-1-[(2R*)-2-{3-[(3aR**,7aR***)-5-{2-[(4-{3,8-diazabicyclo[3.2.1]octan-3-yl}-7-(8-ethyl-3-hydroxynaphthalen-1-yl)-8-fluoropyrido[4,3-d]pyrimidin-2-yl)oxy]ethyl}-octahydro-1H-pyrrolo[3,2-c]pyridin-1-yl]-1,2-oxazol-5-yl}-3-methylbutanoyl]-4-hydroxy-N-[(1S)-1-[4-(4-methyl-1,3-thiazol-5-yl)phenyl]ethyl]pyrrolidine-2-carboxamide] | 60 to 80% | 1000 to 3000 nM
